What was measured:
human TAMs = details: A375 + human monocytes s.c. in NSG mice; phenelzine 30 mg/kg/day i.p.; day 10
Description: (§1) FIG. 6: MAO-A blockade for cancer immunotherapy-human TAM and clinical data correlation studies. a, Studying the MAOA gene expression in human M1- and M2-like macrophages. A transcriptome data set (GSE35449) was analyzed using the prioritization function of a Tumour Immune Dysfunction and Exclusion (TIDE) computational method. Heatmaps are presented, showing the M2-like/M1-like mRNA fold change of MAOA gene as well as a selected group of immunosuppressive, immunostimulatory, and immune checkpoints signature genes. b-d, Studying the MAO-A expression in in vitro differentiated and IL-4/IL-13-polarized human monocyte-derived macrophages (MDMs: n=4). MDMs were generated by culturing healthy donor peripheral blood monocytes over 6 days, followed by stimulation with IL-4 and IL-13 for another 2 days. NC, no cytokine stimulation. (b,c) QPCR analyses of MAOA mRNA expression in MDMs over the 6-day MDM differentiation culture (b) and post the IL-4/IL-13-induced polarization (c). (d) Western blot analyses of MAO-A protein expression in IL-4/IL-13-polarized MDMs. e-g, Studying the in vitro polarization of human MDMs (n=3). MDMs were stimulated with IL-4/IL-13 for 2 days, in the presence or absence of phenelzine (Phe, 20 μM) treatment. NC, no cytokine stimulation: NT, no phenelzine treatment. (e) FACS analyses of CD206 expression on MDMs. (f,g) QPCR analyses ALOX15 (f) and (CD200R1 (g) mRNA expression in MDMs. h-j, Studying the in vivo polarization of human macrophages in a human Tumour-TAM Co-Inoculation xenograft mouse model (n=4). (h) Experimental design. FACS-sorted healthy donor peripheral blood monocytes were mixed with human A375 melanoma cells and s.c. injected into NSG mice to form solid tumours, with or without phenelzine treatment (Phe or NT). (i,j) FACS analyses of CD206 (i) and CD273 (j) expression on TAMs (gated as hCD45^+hCD11b^+hCD14^+ cells of total TIIs) isolated from experimental mice at day 10. k-m, Studying the in vitro efficacy of phenelzine in reprogramming human TAMs and enhancing human T cell antitumour reactivity (n=6). (k) Schematics showing an in vitro 3D human tumour/TAM/T cell organoid culture. A375-A2-ESO, human A375 melanoma cell line engineered to express an NY-ESO-1 tumour antigen as well as its matching HLA-A2 molecule: ESO-T, human peripheral blood CD8 T cells engineered to express an NY-ESO-1-specific TCR: Polarized TAM, human MDMs polarized in vitro with IL-4/IL-13 in the presence or absence of phenelzine treatment (denoted as TAM Phe or TAM NT, respectively). Cells were mixed and cultured as organoids for two days before analysis. (l,m) FACS quantification of live tumour cells (gated as hCD45^− cells) and ESO-T cells (gated as hCD45^+hCD8^+ESO-TCR^+ cells). n, QPCR analyses of MAOA mRNA expression in human TAMs isolated from ovarian cancer patient tumour samples (n=4). Monocytes isolated from random healthy donor peripheral blood were included as controls (n=10). Mo, monocyte. o-r, Clinical data correlation studies. The correlation function of a TIDE computational method was utilized. The association between the intratumoural MAOA gene expression levels and overall survival (OS) of cancer patients was computed through the two-sided Wald test in the Cox-PH regression. For each patient cohort, tumour samples were divided into the MAOA-high (samples with MAOA expression one standard deviation above the average) and MAOA-low (remaining samples) groups, followed by analysing the OS of each group. TIDE analyses of an ovarian cancer patient cohort (GSE26712, n=182: o), a lymphoma patient cohort (GSE10846, n=388: p), a breast cancers patient cohort (GSE9893, n=148: q), and a melanoma patient cohort with anti-PD-1 therapy (PRJEB23709, n=41: r). Representative of 1 (n), 2 (b-d, h-j) and 3 (e-g, k-m) experiments. All data are presented as the mean±SEM. ns, not significant, *P<0.05, **P<0.01, and ***P<0.001, by 1-way ANOVA (l, m), 2-way ANOVA (e-g), or by Student's t test (i, j, n).

[1] = test system: A375-A2-ESO tumour cells / ESO-T cells / polarized MDMs
Description: as §1

[2] = test system: human monocyte-derived macrophages (MDMs); details: phenelzine 20 μM, IL-4/IL-13 for 2 days
Description: as §1

[3] = ESO-T cells co-cultured with phenelzine-treated vs non-phenelzine-treated MDMs

NNCCc1ccccc1 [phenelzine]
CD206 expression on human TAMs (FACS) (human TAMs): decreased expression
CD273 expression on human TAMs (FACS) (human TAMs): decreased expression
immunosuppressive polarization of human TAMs in vivo (human TAMs): effectively suppressed
CD25 expression on ESO-T cells [1, 3]: increased
CD62L expression on ESO-T cells [1, 3]: decreased
ESO-T cell number [1, 3]: increased
immunosuppressive effect of IL-4/IL-13-polarized MDMs on ESO-T cell-mediated killing of A375-A2-ESO tumour cells ([1]; phenelzine treatment during MDM polarization, organoid cultured 2 days): largely alleviated
ALOX15 mRNA expression in MDMs (QPCR) [2]: decreased expression
CD200R1 mRNA expression in MDMs (QPCR) [2]: decreased expression
CD206 expression on MDMs (FACS) [2]: decreased expression
CD273 expression on MDMs (FACS) [2]: decreased expression
IL-4/IL-13-induced immunosuppressive polarization of MDMs [2]: significantly inhibited

Source: patent US20230391871A1, “MONOAMINE OXIDASE BLOCKADE THERAPY FOR TREATING CANCER THROUGH REGULATING TUMOR ASSOCIATED MACROPHAGES (TAMS)” (THE REGENTS OF THE UNIVERSITY OF CALIFORNIA, priority 2020, published 2023)
